Test results as given in patent US12275745B2, “Therapeutic compounds and methods of use” (Genentech, Inc., priority 2021, dated 2025).

Columns and labels:
TEAD4 = TEAD4 (Homo sapiens, UniProt Q15561); assay: TR-FRET (Lipid HTRF) TEAD lipid pocket probe displacement assay, TEAD4; assay type: binding; conditions: His-tagged TEAD4, biotinylated lipid pocket probe, 4 hours
Procedure: (§1) His-tagged TEAD proteins are pre-incubated with TEAD project compounds for 30 minutes or 4 hours at room temperature. Biotinylated lipid pocket probes are then added to the TEAD/Compound mixture and incubated for 60 minutes at room temperature. The lipid pocket probe competes with the test compound for the TEAD lipid pocket until equilibrium is reached. After 60 minutes, Europium labelled anti-His (Perkin Elmer #AD0110) and XL665 labelled streptavidin (CIS Bio 610SAXAC) are added to the TEAD/test compound/lipid pocket mixture and incubated for 30 minutes or 4 hours. TR-FRET values are then measured using an EnVision multi-label plate reader (Perkin Elmer Cat #2104-001 0A.) If the lipid pocket probe binds to TEAD as expected, a TR-FRET signal results from the proximity of anti-His Eu and XL665. If a TEAD lipid pocket binder such as binds and displaces the lipid pocket probe, the disruption of the TEAD:probe interaction results in a decrease in TR-FRET signal. The potency of compounds as TEAD lipid pocket binders is determined by IC50 value generated using a non-linear 4 parameter curve fit.

TEAD2 = TEAD2 (Homo sapiens, UniProt Q15562); assay: biochemical;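 also: TR-FRET competition assay with His-tagged TEAD protein and a biotinylated lipid pocket probe, where probe displacement by compound lowers the signal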
Procedure: as §1

TEAD1 = TEAD1 (Homo sapiens, UniProt P28347); assay: TR-FRET (Lipid HTRF) TEAD lipid pocket probe displacement assay, TEAD1; assay type: binding; conditions: His-tagged TEAD1, biotinylated lipid pocket probe, 4 hours
Procedure: as §1

TEAD3 = TEAD3 (Homo sapiens, UniProt Q99594); assay: TR-FRET (Lipid HTRF) TEAD lipid pocket probe displacement assay, TEAD3; assay type: binding; conditions: His-tagged TEAD3, biotinylated lipid pocket probe, 4 hours
Chain of TEAD3 (Q99594 whole entry, species assumed): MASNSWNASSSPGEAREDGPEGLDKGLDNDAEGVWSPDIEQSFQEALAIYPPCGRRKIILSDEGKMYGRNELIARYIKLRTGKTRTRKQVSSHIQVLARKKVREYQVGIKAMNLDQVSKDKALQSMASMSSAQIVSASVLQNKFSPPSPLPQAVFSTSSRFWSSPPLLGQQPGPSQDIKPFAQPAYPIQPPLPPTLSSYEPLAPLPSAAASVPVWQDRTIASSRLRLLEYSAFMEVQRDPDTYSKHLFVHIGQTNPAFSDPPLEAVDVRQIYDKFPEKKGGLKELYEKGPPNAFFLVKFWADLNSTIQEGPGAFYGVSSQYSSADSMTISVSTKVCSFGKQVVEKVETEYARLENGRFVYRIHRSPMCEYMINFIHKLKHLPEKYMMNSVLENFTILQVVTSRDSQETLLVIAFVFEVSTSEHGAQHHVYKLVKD

Chain of TEAD4 (Q15561 whole entry, species assumed): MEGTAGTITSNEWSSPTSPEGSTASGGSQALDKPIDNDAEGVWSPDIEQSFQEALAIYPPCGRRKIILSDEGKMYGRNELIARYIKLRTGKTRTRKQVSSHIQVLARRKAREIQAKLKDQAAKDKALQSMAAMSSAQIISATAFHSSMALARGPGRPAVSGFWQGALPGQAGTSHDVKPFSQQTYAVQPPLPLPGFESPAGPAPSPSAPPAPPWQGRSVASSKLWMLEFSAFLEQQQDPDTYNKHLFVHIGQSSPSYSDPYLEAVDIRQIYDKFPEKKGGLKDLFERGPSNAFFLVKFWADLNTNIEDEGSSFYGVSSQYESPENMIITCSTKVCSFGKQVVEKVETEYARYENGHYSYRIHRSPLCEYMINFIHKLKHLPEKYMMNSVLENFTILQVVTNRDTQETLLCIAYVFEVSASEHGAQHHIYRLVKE
Chain of TEAD1 (P28347 whole entry, species assumed): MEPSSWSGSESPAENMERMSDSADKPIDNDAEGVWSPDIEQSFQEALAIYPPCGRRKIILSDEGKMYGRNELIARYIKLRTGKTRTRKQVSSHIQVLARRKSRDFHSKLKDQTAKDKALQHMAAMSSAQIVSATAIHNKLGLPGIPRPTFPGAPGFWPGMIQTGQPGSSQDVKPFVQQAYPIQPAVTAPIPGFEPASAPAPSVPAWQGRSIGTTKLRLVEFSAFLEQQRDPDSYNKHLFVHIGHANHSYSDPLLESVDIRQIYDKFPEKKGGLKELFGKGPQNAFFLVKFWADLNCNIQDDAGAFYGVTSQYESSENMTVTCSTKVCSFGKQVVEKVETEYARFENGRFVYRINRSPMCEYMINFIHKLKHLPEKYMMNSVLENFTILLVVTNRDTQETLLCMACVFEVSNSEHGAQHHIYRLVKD
Chain of TEAD2 (Q15562 whole entry, species assumed): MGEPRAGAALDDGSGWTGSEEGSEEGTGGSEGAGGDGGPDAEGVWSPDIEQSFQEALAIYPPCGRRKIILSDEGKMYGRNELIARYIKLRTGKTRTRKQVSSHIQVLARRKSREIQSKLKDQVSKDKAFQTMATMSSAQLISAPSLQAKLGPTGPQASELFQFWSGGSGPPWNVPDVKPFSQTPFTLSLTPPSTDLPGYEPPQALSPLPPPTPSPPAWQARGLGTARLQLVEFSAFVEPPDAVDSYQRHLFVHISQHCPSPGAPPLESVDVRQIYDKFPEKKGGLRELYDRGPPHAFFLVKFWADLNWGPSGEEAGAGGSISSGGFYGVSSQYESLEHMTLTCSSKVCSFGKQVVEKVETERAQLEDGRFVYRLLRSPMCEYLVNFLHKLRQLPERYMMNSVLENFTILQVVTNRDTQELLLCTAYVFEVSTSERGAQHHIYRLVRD

Row | IC50 (TEAD4) [µM] | IC50 (TEAD2) [µM] | IC50 (TEAD1) [µM] | IC50 (TEAD3) [µM] | Structure (SMILES)
1 | 5.7 |  |  |  | C=CC(=O)N[C@H](C)c1cc(-c2ccc(OC(F)(F)F)cc2)c2c(c1CO)CCO2 (single isomer, unassigned) [Compound 17]
2 | 0.8 |  |  |  | C=CC(=O)N[C@@H](C)c1cc(-c2ccc(OC(F)(F)F)cc2)c2c(c1CO)CCO2 (single isomer, unassigned) [Compound 18]
3 | 0.053 |  |  |  | C=CC(=O)NCc1cc(-c2ccc(OC(F)(F)F)cc2)c2ncn(C)c2c1[C@H](O)CO (single isomer, unassigned) [Compound 30]
4 | 0.055 |  |  |  | C=CC(=O)NCc1cc(-c2ccc(OC(F)(F)F)cc2)c2ncn(C)c2c1[C@@H](O)CO (single isomer, unassigned) [Compound 31]
5 | 0.079 | 0.0078 | 0.14 | 0.26 | C=CC(=O)NCc1cc(-c2ccc(OC(F)(F)F)cc2)c2ncn(C)c2c1[C@H](C)O (single isomer, unassigned) [Compound 33]
6 | 0.38 | 0.018 | 0.048 | 1.2 | C=CC(=O)NCc1cc(-c2ccc(OC(F)(F)F)cc2)c2cccnc2c1[C@H](O)CO (single isomer, unassigned) [Compound 45]
7 | 0.125 | 0.00615 | 0.022 | 0.079 | C=CC(=O)NCc1cc(-c2ccc(OC(F)(F)F)cc2)c2cccnc2c1[C@@H](O)CO (single isomer, unassigned) [Compound 46]
8 | 0.135 | 0.0115 | 0.022 | 0.175 | C=CC(=O)NCc1cc(-c2ccc(OC(F)(F)F)cc2)c2ncccc2c1[C@H](O)CO (single isomer, unassigned) [Compound 47]
9 | 0.145 | 0.0145 | 0.022 | 1.03 | C=CC(=O)NCc1cc(-c2ccc(OC(F)(F)F)cc2)c2ncccc2c1[C@@H](O)CO (single isomer, unassigned) [Compound 48]
10 | 0.02 | 0.012 | 0.019 | 0.11 | C=CC(=O)N(C)Cc1cc(-c2ccc(OC(F)(F)F)cc2)c2ncccc2c1[C@H](O)CO (single isomer, unassigned) [Compound 51]
11 | 0.043 | 0.046 | 0.025 | 0.079 | C=CC(=O)N(C)Cc1cc(-c2ccc(OC(F)(F)F)cc2)c2ncccc2c1[C@@H](O)CO (single isomer, unassigned) [Compound 52]
12 | 0.26 |  |  |  | C=CC(=O)NCc1nc(-c2ccc(OC(F)(F)F)cc2)c2ncn(C)c2c1[C@H](O)CO (single isomer, unassigned) [Compound 70]
13 | 0.12 |  |  |  | C=CC(=O)NCc1nc(-c2ccc(OC(F)(F)F)cc2)c2ncn(C)c2c1[C@@H](O)CO (single isomer, unassigned) [Compound 71]
14 |  | 0.04 |  | 1.9 | C=CC(=O)NCc1cc(-c2ccc(OC(F)(F)F)cc2)c2nccnc2c1[C@H](O)CO (single isomer, unassigned) [Compound 79]
15 | 0.29 | 0.07 | 0.16 |  | C=CC(=O)NCc1cc(-c2ccc(OC(F)(F)F)cc2)c2ncoc2c1[C@H]1CNC(=O)O1 (single isomer, unassigned) [Compound 111]
16 | 0.52 | 0.36 | 2.4 |  | C=CC(=O)NCc1cc(-c2ccc(OC(F)(F)F)cc2)c2ncoc2c1[C@@H]1CNC(=O)O1 (single isomer, unassigned) [Compound 112]
17 |  | 0.066 | 0.093 | 0.58 | C=CC(=O)N1CC[C@@H](c2nc(-c3ccc(OC(F)(F)F)cc3)c3ncn(C)c3n2)C1 (single isomer, unassigned) [Compound 122]
18 |  | 0.0078 | 0.017 | 0.08 | C=CC(=O)N1CC[C@H](c2nc(-c3ccc(OC(F)(F)F)cc3)c3ncn(C)c3n2)C1 (single isomer, unassigned) [Compound 123]

Row | IC50 (TEAD4) [µM] | IC50 (TEAD2) [µM] | IC50 (TEAD1) [µM] | IC50 (TEAD3) [µM] | Structure (SMILES)
19 | 0.0152 | 0.0183 |  |  | C=CC(=O)NCc1cc(-c2ccc(OC(F)(F)F)cc2)c2c(c1CO)CCO2 [Compound 12, N-((4-(Hydroxymethyl)-7-(4-(trifluoromethoxy)phenyl)-2,3-dihydrobenzofuran-5-yl)methyl)acrylamide]
20 | 0.005 | 0.3 |  | 0.07 | O=C(CCl)NCc1nc(-c2ccc(OC(F)(F)F)cc2)c2ncsc2n1 [Compound 15, 2-chloro-N-[[7-[4-(trifluoromethoxy)phenyl]thiazolo[5,4-d]pyrimidin-5-yl]methyl]acetamide]
21 |  |  | 0.004 | 0.008 | C=CS(=O)(=O)NCc1cc(-c2ccc(OC(F)(F)F)cc2)c2c(c1CO)CCO2 [Compound 19, N-((4-(Hydroxymethyl)-7-(4-(trifluoromethoxy)phenyl)-2,3-dihydrobenzofuran-5-yl)methyl)ethenesulfonamide]
22 | 0.0175 | 0.0235 |  |  | [2H]C([2H])=C([2H])C(=O)NCc1cc(-c2ccc(OC(F)(F)F)cc2)c2c(c1CO)CCO2 [Compound 20, 2,3,3-Trideuterio-N-((4-(hydroxymethyl)-7-(4-(trifluoromethoxy)phenyl)-2,3-dihydrobenzofuran-5-yl)methyl]prop-2-enamide]
23 | 0.0119 | 0.19 |  | 0.0727 | C=CC(=O)NCc1nc(-c2ccc(OC(F)(F)F)cc2)c2ncsc2n1 [Compound 21, N-[[7-[4-(trifluoromethoxy)phenyl]thiazolo[5,4-d]pyrimidin-5-yl]methyl]prop-2-enamide]
24 | 0.0037 | 0.0039 | 0.0044 |  | O=C(CCl)NCc1cc(-c2ccc(OC(F)(F)F)cc2)c2c(c1CO)CCO2 [Compound 25, 2-Chloro-N-((4-(hydroxymethyl)-7-(4-(trifluoromethoxy)phenyl)-2,3-dihydrobenzofuran-5-yl)methyl)acetamide]
25 | 0.0067 | 0.015 |  | 0.0405 | C=CC(=O)NCc1cc(-c2ccc(OC(F)(F)F)cc2)c2ncn(C)c2c1C#N [Compound 27, N-[[4-cyano-3-methyl-7-[4-(trifluoromethoxy)phenyl]benzimidazol-5-yl]methyl]prop-2-enamide]
26 |  | 0.0153 |  | 0.39 | C=CC(=O)NCc1cc(-c2ccc(OC(F)(F)F)cc2)c2nccnc2c1[C@@H](O)CO [Compound 28, N-[[5-[(1R)-1,2-dihydroxyethyl]-8-[4-(trifluoromethoxy)phenyl]quinoxalin-6-yl]methyl]prop-2-enamide]
27 | 0.002 | 0.0031 |  |  | C=CC(=O)N1CC(c2nc(-c3ccc(OC(F)(F)F)cc3)c3ncn(C)c3n2)C1 [Compound 62, 1-[3-[9-methyl-6-[4-(trifluoromethoxy)phenyl]purin-2-yl]azetidin-1-yl]prop-2-en-1-one]
28 |  | 0.017 | 0.016 | 0.34 | C=CC(=O)NCc1cc(-c2ccc(OC(F)(F)F)cc2)c2ncn(C)c2c1C#C[C@H](O)CO [Compound 74, (S)—N-((7-(3,4-dihydroxybut-1-yn-1-yl)-1-methyl-4-(4-(trifluoromethoxy)phenyl)-1H-benzo[d]imidazol-6-yl)methyl)acrylamide]
29 |  | 0.013 | 0.009 | 0.16 | C=CC(=O)NCc1cc(-c2ccc(OC(F)(F)F)cc2)c2ncn(C)c2c1C#C[C@@H](O)CO [Compound 75, (R)-N-((7-(3,4-dihydroxybut-1-yn-1-yl)-1-methyl-4-(4-(trifluoromethoxy)phenyl)-1H-benzo[d]imidazol-6-yl)methyl)acrylamide]
30 | 0.26 | 0.23 |  | 1.3 | C=CC(=O)NCc1cc(-c2ccc(OC(F)(F)F)cc2)c2ncn(C)c2c1C(N)=O [Compound 76, 3-methyl-5-[(prop-2-enoylamino)methyl]-7-[4-(trifluoromethoxy)phenyl]benzimidazole-4-carboxamide]
31 | 0.0151 | 0.275 |  | 0.216 | [2H]C([2H])=C([2H])C(=O)NCc1nc(-c2ccc(OC(F)(F)F)cc2)c2ncsc2n1 [Compound 101, N-((7-(4-(Trifluoromethoxy)phenyl)thiazolo[5,4-d]pyrimidin-5-yl)methyl)acrylamide-2,3,3-d3]
32 | 0.00225 | 0.00485 |  | 0.009 | Cn1cnc2c(-c3ccc(OC(F)(F)F)cc3)nc(C3CN(C(=O)C4=CCC4)C3)nc21 [Compound 115, Cyclobut-1-en-1-yl(3-(9-methyl-6-(4-(trifluoromethoxy)phenyl)-9H-purin-2-yl)azetidin-1-yl)methanone]
33 |  | 0.0087 | 0.0053 |  | C/C=C/S(=O)(=O)N1CC(c2nc(-c3ccc(OC(F)(F)F)cc3)c3ncn(C)c3n2)C1 [Compound 116, (E)-9-Methyl-2-(1-(prop-1-en-1-ylsulfonyl)azetidin-3-yl)-6-(4-(trifluoromethoxy)phenyl)-9H-purine]
34 | 0.0067 | 0.072 | 0.0095 |  | C=C(F)C(=O)N1CC(c2nc(-c3ccc(OC(F)(F)F)cc3)c3ncn(C)c3n2)C1 [Compound 118, 2-Fluoro-1-(3-(9-methyl-6-(4-(trifluoromethoxy)phenyl)-9H-purin-2-yl)azetidin-1-yl)prop-2-en-1-one]
35 | 0.16 | 1.3 |  |  | Cn1cnc2c(-c3ccc(OC(F)(F)F)cc3)nc(C3CN(C(=O)C45CC4C5)C3)nc21 (stereo not shown) [Compound 119, Bicyclo[1.1.0]butan-1-yl(3-(9-methyl-6-(4-(trifluoromethoxy)phenyl)-9H-purin-2-yl)azetidin-1-yl)methanone]
36 | 0.22 | 0.84 |  |  | C/C=C(\C)C(=O)N1CC(c2nc(-c3ccc(OC(F)(F)F)cc3)c3ncn(C)c3n2)C1 [Compound 120, (E)-2-Methyl-1-(3-(9-methyl-6-(4-(trifluoromethoxy)phenyl)-9H-purin-2-yl)azetidin-1-yl)but-2-en-1-one]
